Source: PMC3827994, “Novel preclinical models of topical PrEP pharmacodynamics provide rationale for combination of drugs with complementary properties” (Retrovirology, 2013)
Structures can show the parent of a compound that is named as a salt. Blank lines part the entries; values can stand above or below the molecule they belong to.

Columns and labels:
HIV-1Ba-L [1] = assay: NHP cervical biopsies co-cultured with PHA-activated human PBMC, HIV-1Ba-L challenge (p24 ELISA); assay type: cell-based
Experimental: (§1) Cervical tissue was collected from pre-menopausal women undergoing therapeutic hysterectomies at the Albert Einstein–Montefiore Weiler Hospital (Bronx, NY, USA) under an IRB exempt protocol. Ectocervical tissue was cut into explants of approximately 3×3×3 mm prior to 24 h exposure to panel of unformulated drugs in 24-well plates. Extracellular free drug was removed by immersing explants in phosphate buffered saline (PBS) containing Ca^2+ before mincing explants into fragments smaller than 1 mm, which were resuspended in 200 μL complete medium and co-cultured with JT-CCR5 cells (1×10^5 cells/well) in triplicate wells of round-bottomed 96-well plates. Co-cultures were incubated at 37°C for 72 h to allow released drug to be transferred from the tissue to T cells prior to challenge with HIV-1Ba-L (approximately 10^3 TCID50). The inoculum was removed and co-cultured tissue and cells washed thrice with medium. HIV replication was assessed by measuring p24 levels by ELISA (Figure 2a).
Proximal and distal biopsies were collected and placed in 200 μL of complete medium and shipped to the Herold laboratory at 4°C. Biopsies were minced without washing and co-cultured with activated human PBMC in the presence of culture medium used during transport. Challenge and assessment of HIV replication were performed as described for human cervical explant tissue (Figure 2a).

HIV-1Ba-L [2] = assay: Co-culture model: drug-exposed human ectocervical explants washed, minced, co-cultured with JT-CCR5 cells, HIV-1Ba-L challenge; assay type: cell-based
Experimental: as §1

HIV-1Ba-L [3] = assay: Antiviral activity of macaque CVL in TZM-bl cells challenged with HIV-1Ba-L (luciferase); assay type: cell-based; details: CVL diluted 1:10 and 1:100, Days 7 and 14 post IVR insertion
Experimental: TZM-bl cells were plated at 3x10^4/well and allowed to adhere overnight before exposure to 10^3 TCID50 HIV-1Ba-L in the presence of CVL diluted 1:10 and 1:100 in complete DMEM in triplicate wells. Virus and drugs were left in culture for 48 h at 37°C and then removed by washing once with 200 μl PBS. Cells were lysed in 100 μl luciferase cell culture lysis reagent (Promega) and stored at -80°C until assessed for luciferase activity using luciferase assay buffer (Promega). Alternatively, TZM-bl cells were plated at 5x10^3/well in polyester transwell™ inserts with 1.0 μm pore size (Corning) and exposed basolaterally to CVL diluted 1:20 in complete DMEM overnight before apical challenge with the CCR5-tropic subtype C HIV isolate 97USNG30 (0, 10 and 100 TCID50). Wells with luciferase activity above background average + 2 standard deviations (cells exposed to CVL but no virus) were considered positive. To avoid contamination, frozen CVL was Gamma-irradiated on dry ice (1KGy) prior to use.

[4] = pig, in vivo
Experimental: A 14-day IQP-0528 IVR biodistribution study using pigtail macaque monkeys was performed following protocols approved by the CDC Institutional Animal Care and Use Committee according to the Guide for the Care and Use of Laboratory Animals as previously described [36]. Briefly, animals were anesthetized with ketamine (3-10 mg/kg) prior to all collection procedures. A total of six macaques were used with two animals receiving placebo IVR and four animals receiving IQP-0528 (10% w/w) IVR. A pediatric speculum and forceps were used to insert IVRs in the posterior vagina proximal to the ectocervix on day 0 and left in place for 14 days. Tissue samples were collected with biopsy forceps (Miltex Townsend # 30–1445) near the vaginal introitus (distal to the ring) and the ectocervix (proximal to the ring) and shipped at 4°C to the Herold laboratory overnight. CVL samples were obtained by washing the vaginal vault with 5 mL normal saline; CVL samples were divided into aliquots, shipped and stored at -80°C.
IQP-0528 in biological samples was extracted and analyzed using LC-MS/MS at the Center for Human Toxicology (Utah). The lower limit of quantification (LLOQ) for this assay was 1 ng/mL of matrix. To convert weight/weight concentrations of IQP-0528 (nanograms IQP-0528 per milligram of vaginal fluid or tissue) to molarity (μM), vaginal fluid and tissue densities of 1.0 g/mL were assumed.

TZM-bl cells = assay: In vitro activity of IQP-0528 in TZM-bl cells; assay type: cell-based; details: not shown
HIV-1Ba-L [5] = assay: JT-CCR5 cells challenged with HIV-1Ba-L in the presence of drug (p24 ELISA); assay type: cell-based
Experimental: (§2) JT-CCR5 T cells in 24-well plates (1×10^6 cells/well) were exposed to varying concentrations of drugs diluted in complete medium for 24 h. The cells were then washed with 10 mL of medium, medium containing 10% human seminal plasma (SP), or not washed and then washed cells were resuspended in complete medium prior to transfer to round-bottomed 96-well plates and exposed to 10^3 TCID50 (50% tissue culture infective dose) HIV-1Ba-L for 2 h. Plates were centrifuged at 500 g for 5 min and supernatants were removed prior to each of 3 washing steps with 200 μL of medium. Cells were subsequently cultured in 200 μL complete medium and HIV replication was assessed 6 d post-infection by measuring p24 antigen by ELISA [34].

HIV-1Ba-L [6] = assay: Intracellular drug retention: JT-CCR5 cells exposed to drug 24 h, washed with medium or 10% seminal plasma, then HIV-1Ba-L challenge; assay type: cell-based; details: for protection of washed cells at the highest concentrations tested: 10 and 100 μM, cells washed with medium or SP; for antiviral activity after washing cells with medium or SP prior to challenge: JT-CCR5, 24 h drug exposure, TDF at >= 0.1 μM
Experimental: as §2

HIV-1Ba-L [7] = assay: Parallel antiviral experiments with MVC in human PBMCs; assay type: cell-based; details: PHA-activated PBMCs; data not shown
HIV = test system: HIV; parameters: method as in PMID 16251317; details: drug present throughout the experiment ref 25; cited from earlier work
[8] = macaques with 10% w/w IQP-0528 IVR, co-culture with human PBMC
[9] = explant treated ex vivo, washed, co-cultured with JT-CCR5
[10] = Human immunodeficiency virus 1; drug concentration during 24 h explant exposure; means ± SEM; read-out: Co-culture JT-CCR5 & explant tissue IC50
[11] = Human immunodeficiency virus 1; drug concentration during 24 h explant exposure; means ± SEM; read-out: Co-culture JT-CCR5 & explant tissue IC90
[12] = Human immunodeficiency virus 1, 144 h; challenge in the presence of drug; means ± SEM; read-out: JT-CCR5 Infection IC50
[13] = Human immunodeficiency virus 1, 144 h; challenge in the presence of drug; means ± SEM; read-out: JT-CCR5 Infection IC90

Molecule: Cc1cc(C)cc(C(=O)c2c(C(C)C)c(=O)[nH]c(=O)n2CC2CC2)c1 [IQP-0528]
viral inhibition, distal biopsies, day 7 (HIV-1Ba-L [1]; [8]): 42.3%
viral inhibition, distal biopsies, day 14 (HIV-1Ba-L [1]; [8]): 59.2%
viral inhibition, proximal biopsies, day 7 (HIV-1Ba-L [1]; [8]): 53.0%
viral inhibition, proximal biopsies, day 14 (HIV-1Ba-L [1]; [8]): 71.7%
viral inhibition, biopsies of ring-treated macaques (range) (HIV-1Ba-L [1]; proximal and distal biopsies, days 7 and 14): 42-72%
IC50 (HIV-1Ba-L [2]; drug concentration during 24 h explant exposure; means ± SEM; read-out: Co-culture JT-CCR5 & explant tissue IC50): 2900 ± 700 nM
IC90 (HIV-1Ba-L [2]; drug concentration during 24 h explant exposure; means ± SEM; read-out: Co-culture JT-CCR5 & explant tissue IC90): 10100 ± 700 nM
protection of co-cultured T cells by pretreated explant tissue (HIV-1Ba-L [2]; [9]): significant protection
protection in co-culture, fresh tissue vs tissue stored at -80°C (HIV-1Ba-L [2]; tissue fresh or frozen 24 h or 7 days after drug treatment): protective under all of these conditions
protection of TZM-bl cells challenged in the presence of CVL (HIV-1Ba-L [3]): significantly protected from infection
IQP-0528 concentration in CVL, D7, Mean ± SEM [4]: 1360 ± 249 µg/mL
IQP-0528 concentration in CVL, D14, Mean ± SEM [4]: 940 ± 250 µg/mL
IQP-0528 concentration in cervical tissue, Distal D7, Mean ± SEM [4]: 0.85 ± 0.23 ng/mg of tissue
IQP-0528 concentration in cervical tissue, Distal D14, Mean ± SEM [4]: 14.65 ± 6.35 ng/mg of tissue
IQP-0528 concentration in cervical tissue, Proximal D7, Mean ± SEM [4]: 3.36 ± 1.36 ng/mg of tissue
IQP-0528 concentration in cervical tissue, Proximal D14, Mean ± SEM [4]: 28.08 ± 5.39 ng/mg of tissue
in vitro IC90 in TZM-bl cells (TZM-bl cells): 2.7 ng/mL
IC50 (HIV-1Ba-L [5]; challenge in the presence of drug; means ± SEM; read-out: JT-CCR5 Infection IC50): 190 ± 70 nM
IC90 (HIV-1Ba-L [5]; challenge in the presence of drug; means ± SEM; read-out: JT-CCR5 Infection IC90): 430 ± 160 nM
protection of washed cells at the highest concentrations tested (HIV-1Ba-L [6]): neither IQP-0528 or MVC completely protected the cells from infection

Molecule: Maraviroc [MVC]
antiviral activity in human PBMCs compared to JT-CCR5 cells (HIV-1Ba-L [7]): no difference in the antiviral activity
protection of co-cultured T cells by pretreated explant tissue (HIV-1Ba-L [2]; [9]): failed to protect co-cultured T cells
IC50 (HIV-1Ba-L [2]; read-out: Co-culture JT-CCR5 & explant tissue IC50; drug concentration during 24 h explant exposure; means ± SEM): > 100000 nM
IC90 (HIV-1Ba-L [2]; read-out: Co-culture JT-CCR5 & explant tissue IC90; drug concentration during 24 h explant exposure; means ± SEM): > 100000 nM
antiviral activity (HIV): low nanomolar range
antiviral activity (HIV-1Ba-L [5]; cells washed 2 h after viral inoculation, drug not re-added): only active in the low μM range
IC50 (HIV-1Ba-L [5]; read-out: JT-CCR5 Infection IC50; challenge in the presence of drug; means ± SEM): 1980 ± 850 nM
IC90 (HIV-1Ba-L [5]; read-out: JT-CCR5 Infection IC90; challenge in the presence of drug; means ± SEM): 54500 ± 13800 nM
protection of washed cells at the highest concentrations tested (HIV-1Ba-L [6]): neither IQP-0528 or MVC completely protected the cells from infection
antiviral activity after washing cells with medium or SP prior to challenge (HIV-1Ba-L [6]): significantly reduced

IC50 (HIV-1Ba-L [5]; [12]): 40 ± 10 nM
IC90 (HIV-1Ba-L [5]; [13]): 130 ± 20 nM
Molecule: CC(C)OC(=O)OCOP(=O)(CO[C@H](C)Cn1cnc2c(N)ncnc21)OCOC(=O)OC(C)C [TDF, Tenofovir disoproxil fumarate]
IC50 (HIV-1Ba-L [2]; [10]): > 10000 nM
IC90 (HIV-1Ba-L [2]; [11]): > 10000 nM
protection of co-cultured T cells by pretreated explant tissue (HIV-1Ba-L [2]; [9]): not protected from viral infection
antiviral activity after washing cells with medium or SP prior to challenge (HIV-1Ba-L [6]): retained its antiviral activity

IC50 (HIV-1Ba-L [5]; [12]): 10 ± 10 nM
IC90 (HIV-1Ba-L [5]; [13]): 30 ± 20 nM
Molecule: Cc1cc(C)c(Nc2ccnc(Nc3ccc(C#N)cc3)n2)c(C)c1 [DPV, Dapivirine]
IC50 (HIV-1Ba-L [2]; [10]): 400 ± 200 nM
IC90 (HIV-1Ba-L [2]; [11]): 1100 ± 300 nM
protection of co-cultured T cells by pretreated explant tissue (HIV-1Ba-L [2]; [9]): significant protection
HIV inhibition (HIV-1Ba-L [6]; 1 μM, cells washed with SP prior to HIV challenge): failed to inhibit HIV infection
inhibition at 1 µM (HIV-1Ba-L [6]; Human immunodeficiency virus 1, 1 μM, cells washed with medium alone, mean ± SEM, read-out: protection (HIV inhibition)): 73.9 ± 13.8%
